# Results published in PubChem BioAssay AID1996.
# Settings: buffer; pH 7.4; 200.0 µM
row,SMILES,solubility kinetic
1,COC(=O)c1cnc(Nc2cccc(C(F)(F)F)c2)c([N+](=O)[O-])c1,< 0.2 µg/mL
2,O=C(Nc1cccc([N+](=O)[O-])c1)C1C2/C=C\CCCCC21 (stereo not drawn),< 0.3 µg/mL
3,COc1cc(C(=O)NCC2CCCCC2)cc(OC)c1OC,12.8 µg/mL
4,C=C1CCc2c([nH]c3ccc(OCC(C)C)cc23)C1=O,0.8 µg/mL
5,Cn1ccnc1SCC(=O)NCC(=O)Nc1ccc(F)c(F)c1F,> 53.7 µg/mL
6,COc1cccc(C(=O)NC(C)CCc2ccccc2)c1 (stereo not drawn),36 µg/mL
7,Cc1c(NC(=O)C(c2ccccc2)c2ccccc2)cccc1C(=O)O,> 51.8 µg/mL
8,CC(NC(=O)/C=C/c1ccccc1[N+](=O)[O-])C1CC2CCC1C2 (stereo not drawn),1.2 µg/mL
9,COc1cccc(NC(=S)N2CCN(S(C)(=O)=O)CC2)c1,> 49.4 µg/mL
10,Fc1ccccc1NC(=S)Nc1ccc(CN2CCOCC2)cc1,49.4 µg/mL
11,COC(=O)c1sc(SC)c(S(=O)(=O)C(C)C)c1N,3.8 µg/mL
12,N#Cc1ccc(COC(=O)c2cccnc2Cl)cc1,26.9 µg/mL
13,CC1CC(C)CN(C(=O)C(Cc2ccccc2)n2cccc2)C1 (stereo not drawn),4.4 µg/mL
14,CC12C(=O)N(c3ccccc3)C(=O)C1C(c1ccccc1)N1CCCN12 (stereo not drawn),> 52.1 µg/mL
15,Cc1oc2ccccc2c1CNC(=O)N(C)C,> 34.8 µg/mL
16,CCOc1ccc(-c2c(C)n([O-])c3c([n+]2=O)CCCCC3)cc1,> 47.2 µg/mL
17,COc1cccc(OC)c1C(=O)Nc1ccc(Br)c(C(=O)c2ccccc2)c1,4.2 µg/mL
18,CCn1c(CCCNC(=O)c2ccco2)nc2ccccc21,42.1 µg/mL
19,O=S(=O)(c1ccccc1)N(CC1CO1)c1ccccc1 (stereo not drawn),> 43.4 µg/mL
20,CCCCC(=O)Nc1cc(Cl)ccc1C(=O)O,> 38.4 µg/mL
21,COc1ccc(C(=O)N2CCCC(C(=O)O)C2)c2ccccc12 (stereo not drawn),> 47 µg/mL
22,C[N+](C)(C)CC#CCOC(=O)Nc1cccc(Cl)c1.[Cl-],> 47.6 µg/mL
23,Cc1ccc(N2C(=O)C(Cl)=C(N3CCCCCC3)C2=O)c(C)c1,4.5 µg/mL
24,Cc1csc(NC(=O)C2=COCCO2)n1,> 33.9 µg/mL

row,SMILES,solubility kinetic
1,O=C(CCCN1CC=C(n2c(=O)[nH]c3ccccc32)CC1)c1ccc(F)cc1,33.4 µg/mL
2,C=CCNC(=O)c1cc(-c2ccncc2)nc2c(C)cc(C)cc12,2 µg/mL
3,C/C(O)=C(\C#N)P(=O)(c1ccccc1)c1ccccc1,> 42.5 µg/mL
4,O=C(CN1CCS(=O)(=O)CC1)NNC(=O)C1CCCCC1,> 47.6 µg/mL
5,Cc1cc(C)c2c(N)c(C(=O)Nc3cccc(C)c3C)sc2n1,1.2 µg/mL
6,C=CCc1cc(Cl)ccc1OCCn1ccnc1.O=C(O)C(=O)O,39.5 µg/mL
7,CN(C(=O)c1ccccc1)c1nccnc1C#N,> 35.7 µg/mL
8,Cl.O=C(NCCCn1ccnc1)c1cc(Cl)cc(Cl)c1,> 50.2 µg/mL
9,CN1CCN(NC(=S)NC(C)(C)CC(C)(C)C)CC1,> 43 µg/mL
10,CCOC(=O)N1CCN(CC(O)c2c[nH]c3ccc(OC)cc23)CC1 (stereo not drawn),> 52.1 µg/mL
11,Cc1ccccc1OCC(O)CN1C(=O)c2ccccc2C1=O (stereo not drawn),41.7 µg/mL
12,Nc1ccc(Cl)c(S(=O)(=O)Nc2ccc(Cl)cc2)c1,43.4 µg/mL
13,CC(C)(C)C(=O)Nc1ccc(F)cc1[N+](=O)[O-],13.8 µg/mL
14,CCCCCC(=O)NC(=S)NC1C2CC3CC(C2)CC1C3 (stereo not drawn),28.3 µg/mL
15,Cc1ncc(CN2CCCC(C(=O)c3cccc(Cl)c3)C2)s1 (stereo not drawn),43.2 µg/mL
16,Fc1ccc(OCc2cc(-c3ccccc3)no2)cc1,< 0.6 µg/mL
17,O=C(NC1CCN(C(=S)Nc2ccc(Cl)cc2)CC1)c1ccco1,> 54.6 µg/mL
18,CC(OC(=O)c1ccccn1)C(=O)Nc1nc(-c2ccc(F)c(F)c2)cs1 (stereo not drawn),7.9 µg/mL
19,Cc1ccc2[nH]c(=O)c(CC(=O)O)c(-c3ccccc3)c2c1,> 44 µg/mL
20,NC(=O)c1cc[n+](Cc2ccccc2Cl)cc1.[Br-],> 49.1 µg/mL
21,Cc1cccc(-n2c(-c3ccc(Br)o3)n[nH]c2=S)c1,> 50.4 µg/mL
22,Cc1ccc2oc(=O)c3cc(C(=O)N4CCN(C)CC4)sc3c2c1,11.8 µg/mL
23,COc1cccc2cc(-c3nc4ccccc4o3)c(=O)oc12,1.7 µg/mL
24,O=C(Nc1cccc(Cl)c1)c1ccc2ncsc2c1,21.2 µg/mL

row,SMILES,solubility kinetic
1,CC(C)CC(N(C)C)C1(c2ccc(Cl)cc2)CCC1.Cl (stereo not drawn),< 0.7 µg/mL
2,Fc1ccc(OCCOCCN2CCNCC2)cc1.O=C(O)C(=O)O,51 µg/mL
3,COCCNc1nc(SC)nc2sc3c(c12)CCN(C)C3,46.5 µg/mL
4,C=CCn1c(O)c(C(C)=Nc2cccc(C(F)(F)F)c2)c(=O)[nH]c1=O,4 µg/mL
5,CCOC(=O)CNC(=O)c1ccc(Cl)s1,> 37.2 µg/mL
6,Cc1noc(C(=O)Nc2cccnc2Cl)c1Cl,> 40.8 µg/mL
7,COCC(=O)Nc1ccc2nc3n(c(=O)c2c1)CCCCC3,41.7 µg/mL
8,CS(=O)(=O)N1CCN(c2ccc([N+](=O)[O-])cc2C(F)(F)F)CC1,39.9 µg/mL
9,COc1ccc(CNC(=O)COC(=O)c2ccc(S(=O)(=O)N3CCOCC3)cc2)cc1,9.2 µg/mL
10,CC(C)C(C)NC(=O)COc1ccc(OCc2ccccc2)cc1 (stereo not drawn),1.9 µg/mL
11,COc1ccc(NC(=O)CS(=O)c2ccc(F)cc2)cc1 (stereo not drawn),> 46.1 µg/mL
12,Cc1cc(C)cc(NC(=O)C2CCN(C(=O)c3cccs3)CC2)c1,> 51.4 µg/mL
13,Cc1ccc2nc(SCC(=O)NC3CCS(=O)(=O)C3)[nH]c2c1 (stereo not drawn),48.3 µg/mL
14,O=C(O)CNS(=O)(=O)Cc1ccccc1,29 µg/mL
15,CCC(C(=O)OCC(=O)NCc1ccc2c(c1)OCO2)c1ccccc1 (stereo not drawn),46 µg/mL
16,COc1ccccc1N1CCN(C(=O)c2cc3cc(Cl)ccc3[nH]2)CC1,< 0.3 µg/mL
17,O=C(NC(=S)NCc1ccccc1)c1ccccc1Br,< 0.4 µg/mL
18,O=Cc1ccc(-c2ccc([N+](=O)[O-])cc2Cl)o1,5.2 µg/mL
19,CCOC(=O)c1cc(/C(C)=N/OC(=O)c2ccc(Cl)cc2)on1,0.6 µg/mL
20,c1ccc(Oc2cccc(Oc3ccccc3)n2)cc1,< 0.6 µg/mL
21,Nc1ccc2nc(SCC(=O)N3CCOCC3)sc2c1,> 46.4 µg/mL
22,O=C(Cn1cc(C(F)(F)F)ccc1=O)N1CCc2ccccc21,25.2 µg/mL
23,Cc1ccccc1CC(=O)NCCN1CCCCC1,> 39.1 µg/mL
24,Cc1cc(NC(=O)c2ccco2)c(=O)n(Cc2c(F)cccc2Cl)c1,< 0.4 µg/mL

row,SMILES,solubility kinetic
1,Oc1c(Cl)cc(CN2CCOCC2)c2cccnc12,33.6 µg/mL
2,Cc1ccc(C(O)Cn2cc([N+](=O)[O-])nc2C)cc1 (stereo not drawn),> 39.2 µg/mL
3,O=C(Nc1ccc2c(c1)OCO2)C1CC1(Cl)Cl (stereo not drawn),> 41.1 µg/mL
4,O=C1CN=C(c2ccccc2)c2c(sc3c2CCCC3)N1,36.3 µg/mL
5,NC(=O)COc1c(-c2ccc(Br)o2)oc2ccccc2c1=O,11.1 µg/mL
6,Cc1ccc2[nH]cc(S(=O)(=O)c3ccc(C)c(C)c3)c(=O)c2c1,< 0.7 µg/mL
7,COc1c(C)cc(C(=O)C2CCCN(C3CCOCC3)C2)cc1C (stereo not drawn),> 49.7 µg/mL
8,COC(=O)c1c(C)[nH]c(C(=O)C(C)OC(=O)C2CC2)c1C (stereo not drawn),39.7 µg/mL
9,O=[N+]([O-])c1cccc(S(=O)(=O)/N=C(/Nc2ccccc2)c2ccccc2)c1,1.8 µg/mL
10,CC(=O)c1ccc(NC(=O)c2onc(C)c2Cl)cc1,6.8 µg/mL
11,O=C(Nc1ccc2c(c1)C(=O)OC2)c1ccc(C(F)(F)F)cc1,< 0.7 µg/mL
12,CC(C)(C)NC(=O)NC(=O)COC(=O)Cc1c(F)cccc1Cl,15.6 µg/mL
13,CCCC(=O)Nc1sc(Cc2ccccc2)c(C)c1C(N)=O,6.9 µg/mL
14,CCCCc1ccc(NC(=S)N2CCN(C)CC2)cc1,> 43.7 µg/mL
15,CSc1ccccc1NC(=O)C1=COCCO1,> 37.7 µg/mL
16,OCC1CCCCN1C(=S)Nc1ccc(Cl)cc1Cl (stereo not drawn),> 47.9 µg/mL
17,Cc1ccc2c(CN3CCCCC3)cc(=O)oc2c1C,22.6 µg/mL
18,O=C1CCCN1CCCNC(=S)Nc1ccccc1,41 µg/mL
19,CCCCN(C(=O)c1cc(-c2ccncc2)nc2ccccc12)c1c(N)n(CC(C)C)c(=O)[nH]c1=O,10 µg/mL
20,C=C(C)COc1ccc(C2NC(=O)c3ccccc3O2)cc1OCC (stereo not drawn),1.9 µg/mL
21,Cc1cccc2c(=O)cc(C)n(CC(N)=O)c12,> 34.5 µg/mL
22,O=C(NCC(=O)N1CCCC1)c1ccc(Cl)cc1,> 40 µg/mL
23,COc1ccccc1NC(=S)N(Cc1cccnc1)Cc1ccco1,48.3 µg/mL
24,COCCN(C(=O)CSc1ccc2c(c1)OCCO2)c1c(N)n(CC(C)C)c(=O)[nH]c1=O,> 69.7 µg/mL

row,SMILES,solubility kinetic
1,Cc1ccc([N+](=O)[O-])cc1N,13.5 µg/mL
2,Cc1ccc(SCC(=O)NC2CCCCCC2)cc1,> 41.6 µg/mL
3,CC(=O)Nc1ccc2c(c1)nc(CCN1CCN(c3ccccn3)CC1)n2C,< 0.1 µg/mL
4,CCOC(=O)Cn1nc(C)c(NC(=O)COc2cccc(Cl)c2)c1C,> 54.9 µg/mL
5,COC(=O)C(Cc1ccc(O)cc1)NC(=O)CCNC(=O)c1ccco1 (stereo not drawn),> 54.1 µg/mL
6,C=CCNC(=O)C(C)N1c2cccc3cccc(c23)S1(=O)=O (stereo not drawn),> 47.5 µg/mL
7,O=C(CCCOc1ccc(Cl)cc1)NCCc1ccccc1,1.5 µg/mL
8,COc1ccc(OC)c(NC(=O)CCC(=O)Oc2ccc(C)cc2)c1,49.1 µg/mL
9,CC1CCN(C(=O)Cn2cc(C(F)(F)F)ccc2=O)c2ccccc2S1 (stereo not drawn),> 57.4 µg/mL
10,O=C(COC(=O)c1cccnc1Cl)NC(=O)c1ccc(OC(F)F)cc1,10.1 µg/mL
11,CC(=O)Nc1nccc(-c2cc(-c3ccccc3)no2)n1,2.1 µg/mL
12,CC(C)CC(NC(=O)C1CCC(C)CC1)C(=O)NCc1ccco1 (stereo not drawn),25.2 µg/mL
13,O=C1NC2(CCCC2)Oc2ccccc21,> 30.5 µg/mL
14,COc1cccc(OC)c1C(=O)Nc1ccc(N2CCCC2)cc1,46.9 µg/mL
15,CC1(C)COCN1C(=O)c1ccc(C#N)cc1,> 34.5 µg/mL
16,CC1CC(C)CN(C(=O)COc2cccnc2[N+](=O)[O-])C1 (stereo not drawn),> 44 µg/mL
17,COc1cc(CN2CCSCC2)c([N+](=O)[O-])cc1OC,35.2 µg/mL
18,Nc1ccccc1C#Cc1ccc([N+](=O)[O-])cc1,1.1 µg/mL
19,CC1(C)Cn2c(nc(=O)c3c2NCN(CCc2ccccc2)C3)S1,> 51.4 µg/mL
20,O=C1CC(N2CCc3ccccc32)C(=O)N1c1ccc(F)cc1 (stereo not drawn),> 46.5 µg/mL
21,Cc1cc(=O)oc2cc(NC(=O)c3cc(F)ccc3F)ccc12,2.1 µg/mL
22,CCOc1ccccc1NC(=S)NC(=O)C1CC1,2.6 µg/mL
